Data from article PMC7399811, “Analogues of a Cyclic Antimicrobial Peptide with a Flexible Linker Show Promising Activity against Pseudomonas aeruginosa and Staphylococcus aureus” (Antibiotics, 2020).
Converted amounts (≈) assume the structure as drawn. Square brackets hold non-standard residues; d marks the D form. Peptide text beside a SMILES is read from it. Bip = N[C@@H](Cc1ccc(-c2ccccc2)cc1)C(=O)O; 2Nal = N[C@@H](Cc1ccc2ccccc2c1)C(=O)O; Dab = NCC[C@H](N)C(=O)O; AEEA = NCCOCCOCC(=O)O

Experiments:
A. baumannii ATCC 19606 = format: cell-based; conditions: for Minimum inhibitory concentration AB: ATCC 19606
Procedure: (§1) Bacterial strains (E. coli ATCC 29522, S. aureus ATCC 29213, A. baumannii ATCC 19606, and P. aeruginosa ATCC 27853) were grown overnight on LB agar plates at 37 °C. Overnight cultures were prepared by inoculation of two to three colonies in 10 mL non-cation adjusted Mueller–Hinton broth (MHB) media (BD BBLTM Beef extract powder, BD BactoTMCasamino acids, and DIFCO soluble starch). Bacterial inoculum for MIC testing was prepared as balanced cultures, as previously described. The bacterial suspension was adjusted using MHB to an OD600 of 0.1, approximately 1·10^8 colony forming units (CFU/mL), and then diluted 1:200 in MHB, to give a final bacterial suspension of 5·10^5 CFU/mL, as described by Wiegand et al.. […] For MIC determination, all peptides were measured in triplicates using the protocol described by Wiegand et al. for “antimicrobial peptides that require the presence of acetic acid/BSA”. In brief, 20 µL peptide solution and gentamycin solution was transferred to column 1 of 96-well plates. Next, 10 µL 0.2% BSA; 0.01% acetic acid MHB media was transferred to column 2–11. Subsequently, peptides were serially diluted two-fold in the MIC plate and 90 µL bacterial suspension was transferred to all wells in column 1–11. Next, 100 µL bacterial suspension was transferred to column 12 D–F (growth control) and 100 µL media to column 12 A–C (sterility control). After an overnight incubation at 37 °C of the MIC plates, MIC values were determined as the lowest concentration at which there was no visible bacterial growth. For the inoculum control, 10 µL of solution from a positive-growth control well from each bacterial strain was dissolved in 990 µL phosphate-buffered saline (PBS) (1:100 dilution) in an Eppendorf tube. This solution was vortexed and 100 µL transferred to another Eppendorf tube containing 900 µL PBS (1:10 dilution) and vortexed. Then, 100 µL of each dilution was spread onto the MHB media plates, in triplicates, to achieve a CFU dilution of 1:1000 and 1:10,000, respectively. The plates were incubated overnight at 37 °C. The colonies were counted and 50 colonies were expected on the 1:10,000 plates and 500 on the 1:1000 plates.

E. coli ATCC 29522 = format: cell-based; conditions: for Minimum inhibitory concentration EC: ATCC 29522
Procedure: as §1

P. aeruginosa ATCC 27853 [1] = format: cell-based
Procedure: as §1

S. aureus ATCC 29213 [2] = format: cell-based
Procedure: as §1

[3] = RP-HPLC retention time as indicator of hydrophobicity/amphipathicity; format: physicochemical; conditions: chromatographic, Waters Symmetry C18 4.6 × 250 mm, used as measure of hydrophobicity/amphipathicity (Table S1)
Procedure: Cleavage was performed on half or all of the resin with a TFA:H2O:TIS (95:2.5:2.5) solution for 2 h. The cleavage solution was collected and concentrated with a gentle stream of N2, down to about 300 µL. The peptide was precipitated and washed with 4 mL cold (−20 °C) diethyl ether, 3 times. The residual ether was left overnight to evaporate. Next, the crude product was dissolved in 90% water and 10% ACN and freeze-dried, ready for analysis and purification. Peptides were identified using Matrix Assisted Laser Desorption Ionization time of flight mass spectroscopy (MALDI–ToF MS). To this end, 1 µL peptide solution and 1 µL α-cyano4-hydroxycinnamic acid matrix (10 mg/ mL in ACN:H2O:TFA, 50:47.5:2.5) were spotted onto a target plate, followed by detection using a MicroflexTM. FlexControl software was used to obtain the spectra and the data were processed using flexAnalysis [Bruker Daltonik GmbH]. RP–HPLC was used to assess peptide purity. The system consisted of a WatersTM In-Line Degasser AF, a WatersTM 600 pump, a WatersTM 2996 Photodiode Array Detector, and a WatersTM Symmetry C18, 4.6 × 250 mm, […] column. The data were processed using Empower3 software. Purity was ≥95% for all tested peptide. Peptide purification was done by dissolving the peptides in minimal […], and 300–500 µL was injected into the HPLC system to achieve separation.

[4] = test system: S. aureus, P. aeruginosa, E. coli, A. baumannii; assay: Minimum inhibitory concentration, statements over several strains; format: cell-based; conditions: MIC against S. aureus and P. aeruginosa
Procedure: Bacterial strains (E. coli ATCC 29522, S. aureus ATCC 29213, A. baumannii ATCC 19606, and P. aeruginosa ATCC 27853) were grown overnight on LB agar plates at 37 °C. Overnight cultures were prepared by inoculation of two to three colonies in 10 mL non-cation adjusted Mueller–Hinton broth (MHB) media (BD BBLTM Beef extract powder, BD BactoTMCasamino acids, and DIFCO soluble starch). Bacterial inoculum for MIC testing was prepared as balanced cultures, as previously described. The bacterial suspension was adjusted using MHB to an OD600 of 0.1, approximately 1·10^8 colony forming units (CFU/mL), and then diluted 1:200 in MHB, to give a final bacterial suspension of 5·10^5 CFU/mL, as described by Wiegand et al.. […] For MIC determination, all peptides were measured in triplicates using the protocol described by Wiegand et al. for “antimicrobial peptides that require the presence of acetic acid/BSA”. In brief, 20 µL peptide solution and gentamycin solution was transferred to column 1 of 96-well plates. Next, 10 µL 0.2% BSA; 0.01% acetic acid MHB media was transferred to column 2–11. Subsequently, peptides were serially diluted two-fold in the MIC plate and 90 µL bacterial suspension was transferred to all wells in column 1–11. […] The colonies were counted and 50 colonies were expected on the 1:10,000 plates and 500 on the 1:1000 plates.

red blood cells = conditions: at 150 µM peptide; 0.5% v/v RBC in PBS, 1 h 37 °C, absorbance 414 nm, normalized to melittin (100%) and PBS (0%)
Procedure: A total of 150 µL of 5 µM melittin was added to the positive control wells 1-6H of a V-shaped 96-well polypropylene plate and left overnight. The melittin solution was removed and the positive control wells were washed 3 times with 150 µL PBS. Afterwards, a 2.5 µM melittin solution was added to the positive control wells. For the assay, 0-negative blood in EDTA was used. Blood was washed by mixing 3 mL of PBS with 1 mL of whole blood, and centrifuged for 8 min at 3000 rpm. The supernatant was discarded and 4 mL of PBS added, mixed gently, and centrifuged. This wash cycle was repeated but the last centrifuge velocity was raised to 4000 rpm. Next, 40 µL red blood cells (RBC) was suspended in 8 mL of PBS to achieve an RBC suspension of 0.5% volume/volume (v/v). Peptide solutions were prepared at 600 µM, two times the highest concentration. A total of 150 µL peptide solution was transferred to row A. Next, 75 µL PBS was transferred to wells B1 to G12, as well as H7-12 (negative control), and the peptides were serially diluted two-fold. Then, 75 µL RBC suspension was added to all wells and the plate was covered with a Microseal® film and incubated for 1 h at 37 °C. Next, the plate was centrifuged for 10 min at 4000 rpm. Subsequently, 60 µL supernatant was transferred into the corresponding wells of a clear, polystyrene, flat-bottomed 96-well ELISA plate. The absorbance was read at λ = 414 nm with a VersaMaxTM Tunable Microplate Reader and the data were evaluated on Softmax® Pro. The results were normalized with respect to the average positive (100%) and negative (0%) controls, as described previously [43].

P. aeruginosa ATCC 27853 [5] = assay: Time-kill kinetics; format: cell-based; conditions: for kind of activity in time-kill experiments: P. aeruginosa; for effect on CFU: P. aeruginosa late exponential phase (OD600 ~0.1)
Procedure: (§2) The killing kinetics of compound 11 (Figure 1A–D) were performed in two types of experiments on approximately 5 × 10^5 (exponential phase) and 5 × 10^7 (late exponential phase) colony forming units (CFU). […] Colistin and chloramphenicol was used as control antibiotics against P. aeruginosa and S. aureus, respectively. Chloramphenicol was chosen against S. aureus because initial experiments indicated 11 to be bacteriostatic. Time-kill experiments were performed on balanced exponentially growing cultures of S. aureus ATCC 29213 or P. aeruginosa ATCC 27853. We used balanced cultures, as described in Oddo et al.. In brief, overnight cultures were prepared in MHB broth at 37 °C, with shaking. Overnight cultures, were back diluted and grown exponentially for no less than 8–10 generations, before experimentation. When experiments were done at OD600 = 0.0005 ~5 × 10^5, the cultures were back diluted into fresh MHB, heated to 37 °C from an exponentially growing culture. In the late exponential phase, cultures were simply kept in the exponential phase, until OD600 = 0.1, before experimentation.

S. aureus ATCC 29213 [6] = assay: Time-kill kinetics; format: cell-based
Procedure: as §2

[7] = P. aeruginosa late exponential phase, 5× MIC

Compound	Minimum inhibitory concentration AB (A. baumannii ATCC 19606)	Minimum inhibitory concentration EC (E. coli ATCC 29522)	Minimum inhibitory concentration PA (P. aeruginosa ATCC 27853 [1])	Minimum inhibitory concentration SA (S. aureus ATCC 29213 [2])	HPLC retention time (RT) [3]	increase in activity compared to BSI-9 [4]	percent hemolytic activity against red blood cells (%H) (red blood cells)	activity in MIC assays (A. baumannii ATCC 19606; A. baumannii)	activity in MIC assays (E. coli ATCC 29522; E. coli)	kind of activity in time-kill experiments (P. aeruginosa ATCC 27853 [5])	reduction in viable bacterial counts (P. aeruginosa ATCC 27853 [5]; P. aeruginosa exponential phase (~5 × 10^5 CFU), 1× MIC)	reduction in CFU (P. aeruginosa ATCC 27853 [5]; P. aeruginosa exponential phase, 3–5× MIC, within the first hour)	effect on CFU (P. aeruginosa ATCC 27853 [5]; 1× MIC)	reduction in CFU (P. aeruginosa ATCC 27853 [5]; P. aeruginosa late exponential phase, 3× MIC)	reduction in CFU (P. aeruginosa ATCC 27853 [5]; [7])	reduction in CFU (S. aureus ATCC 29213 [6]; S. aureus exponential phase, 1× MIC)	reduction in CFU (S. aureus ATCC 29213 [6]; S. aureus exponential phase, 3× MIC and 5× MIC)	reduction in CFU (S. aureus ATCC 29213 [6]; S. aureus late exponential phase, 5× MIC, regrowth after 24 h)
NCC[C@@H]1NC(=O)[C@H](Cc2ccc3ccccc3c2)NC(=O)COCCOCCNC(=O)[C@H](Cc2ccc(-c3ccccc3)cc2)NC(=O)[C@H](CCN)NC(=O)[C@H](CCN)NC(=O)[C@H](Cc2ccc3ccccc3c2)NC(=O)[C@H](CCN)NC(=O)[C@H](CC(N)=O)NC1=O [compound 9] (cyclo([Dab][2Nal][Dab][Dab][Bip][AEEA][2Nal][Dab]N))	32 µg/mL (≈ 25 µM)	>64 µg/mL	4 µg/mL (≈ 3.13 µM)	8 µg/mL (≈ 6.26 µM)	17.8 min	8 fold	76%											
N=C(N)NCCC[C@@H]1NC(=O)[C@H](Cc2ccc3ccccc3c2)NC(=O)[C@H](CCN)NC(=O)[C@H](CC(N)=O)NC(=O)[C@H](CCN)NC(=O)[C@H](Cc2ccc3ccccc3c2)NC(=O)COCCOCCNC(=O)[C@H](Cc2ccc(-c3ccccc3)cc2)NC(=O)[C@H](CCN)NC1=O [compound 11] (cyclo([Dab][2Nal]R[Dab][Bip][AEEA][2Nal][Dab]N))	32 µg/mL (≈ 24 µM)	32 µg/mL (≈ 24 µM)					36%	no activity	no activity	bactericidal	~ 2 log	> 3 log	virtually no effect	1 log	3 log	2 log	> 3 log	3 log
colistin [reference compound]										bactericidal			virtually no effect		1 log			
N=C(N)NCCC[C@@H]1NC(=O)[C@H](CC(N)=O)NC(=O)[C@H](CCN)NC(=O)[C@H](Cc2ccc3ccccc3c2)NC(=O)COCCOCCNC(=O)[C@H](Cc2ccccc2)NC(=O)[C@H](CCN)NC(=O)[C@H](CCN)NC(=O)[C@H](Cc2ccc3ccccc3c2)NC1=O [compound 17] (cyclo(R[2Nal][Dab][Dab]F[AEEA][2Nal][Dab]N))	>64 µg/mL	64 µg/mL (≈ 50.9 µM)	16 µg/mL (≈ 12.7 µM)	64 µg/mL (≈ 50.9 µM)			3%											
N=C(N)NCCC[C@@H]1NC(=O)[C@H](Cc2ccc3ccccc3c2)NC(=O)COCCOCCNC(=O)[C@H](Cc2ccc(-c3ccccc3)cc2)NC(=O)[C@H](CCN)NC(=O)[C@H](CCN)NC(=O)[C@H](Cc2ccc3ccccc3c2)NC(=O)[C@H](CCN)NC(=O)[C@H](CC(N)=O)NC1=O [compound 13] (cyclo([Dab][2Nal][Dab][Dab][Bip][AEEA][2Nal]RN))	64 µg/mL (≈ 48 µM)	32 µg/mL (≈ 24 µM)	4 µg/mL (≈ 3 µM)	1 µg/mL (≈ 0.75 µM)	17.9 min		80%											
N=C(N)NCCC[C@@H]1NC(=O)[C@H](CC(N)=O)NC(=O)[C@H](CCN)NC(=O)[C@H](Cc2ccc3ccccc3c2)NC(=O)COCCOCCNC(=O)[C@H](Cc2ccc(-c3ccccc3)cc2)NC(=O)[C@H](CCN)NC(=O)[C@H](CCN)NC(=O)[C@H](Cc2ccc3ccccc3c2)NC1=O [compound 10] (cyclo(R[2Nal][Dab][Dab][Bip][AEEA][2Nal][Dab]N))	32 µg/mL (≈ 24 µM)	32 µg/mL (≈ 24 µM)	2 µg/mL (≈ 1.5 µM)	2 µg/mL (≈ 1.5 µM)			66%											
